Experiment [1] has as its system mitochondrial membrane potential. Format: cell-based, mouse.
A further experiment relates to reactive oxygen species. Format: cell-based, mouse.
In a further experiment the test system is OXPHOS gene expression. Format: cell-based, mouse.
The next experiment deals with nuOXPHOS transcripts. Format: cell-based, mouse.
The subject of the next experiment is mtOXPHOS transcripts. Format: cell-based, mouse.
Another experiment deals with cytochrome c. Format: cell-based, mouse.
The test system of experiment [2] is cellular dehydrogenase activity.
Setting [3] is: composite Z-score vs DMSO, Conc 20 μM.
Setting [4] is: normalized composite Z-score vs mock-treated (DMSO) wells, Conc 20 μM.
Setting [5] is: composite Z-score vs DMSO wells, Conc 20 μM.
Where [6] appears, read: composite Z-score vs mock-treated (DMSO) wells, concentration of each compound in μM.
The mark [7] stands for this setting: normalized score (composite Z-score vs DMSO mock-treated wells), compound concentration (μM).

Molecules are shown by their SMILES. Like-named read-outs stand apart in the source and are kept apart here.

Consider `C[C@]12CC[C@@H]3c4ccc(O)cc4CC[C@H]3[C@@H]1CC[C@@H]2O` [estradiol], for which the ΔΨm in experiment [1] (setting [3]) is listed as −0.085. The compound further displayed an ROS in the experiment on reactive oxygen species (setting [3]) of 0.310. This compound also gave a GE-HTS in the experiment with OXPHOS gene expression (setting [3]) of 0.290. Moreover, in the experiment on nuOXPHOS transcripts (setting [3]), the nucOX was 0.410. In the experiment with mtOXPHOS transcripts (setting [3]), this compound displayed a mitoOX of −0.058. In the experiment on cytochrome c (setting [3]), this compound showed a cyt c of 0.389. The compound further displayed a Viability in the experiment with C2C12 myotubes (setting [3]) of 0.400. In experiment [2] (setting [3]), this compound came in with an MTT of −1.040.
`Cc1ccc(/N=C/N(C)/C=N/c2ccc(C)cc2C)c(C)c1` [amitraz] yielded a ΔΨm in experiment [1] (setting [3]) of −0.741. This compound also registered an ROS in the experiment on reactive oxygen species (setting [3]) of 0.867. This compound returned a GE-HTS in the experiment with OXPHOS gene expression (setting [3]) of −0.526. In the experiment with nuOXPHOS transcripts (setting [3]), the nucOX was −0.299. This compound also came in with a mitoOX in the experiment with mtOXPHOS transcripts (setting [3]) of −0.814. For the same compound, in the experiment with cytochrome c (setting [3]), the cyt c was determined as 0.292. Besides, the Viability in the experiment on C2C12 myotubes (setting [3]) is reported as −1.025. Also, in experiment [2] (setting [3]), the MTT was −1.572.
Regarding `CC[C@@H](C(=O)[C@@H](C)[C@@H](O)[C@H](C)CCc1ccc(C)c(O)c1C(=O)O)[C@H]1O[C@](CC)([C@H]2CC[C@](O)(CC)[C@H](C)O2)C[C@@H]1C` [lasalocid, reference compound], the ΔΨm in experiment [1] (setting [3]) is on record as −1.178. The same compound came in with an ROS in the experiment with reactive oxygen species (setting [3]) of −2.993. The compound further yielded a GE-HTS in the experiment on OXPHOS gene expression (setting [3]) of −1.524. Also, the nucOX with nuOXPHOS transcripts (setting [3]) turned out to be 0.274. The same compound displayed a mitoOX in the experiment with mtOXPHOS transcripts (setting [3]) of −4.908. In the experiment with cytochrome c (setting [3]), this compound displayed a cyt c of −1.690. Further, the Viability with C2C12 myotubes (setting [3]) is −1.090. Besides, the MTT in experiment [2] (setting [3]) is listed as −1.771.
Turning to `CC(=O)Oc1ccc(/C=C/c2cc(OC(C)=O)cc(OC(C)=O)c2)cc1` [triacetylresveratrol], the ΔΨm in experiment [1] (setting [4]) was −3.502. For the same compound, the ROS with reactive oxygen species (setting [4]) is recorded as −1.361. Further, the GE-HTS with OXPHOS gene expression (setting [4]) is on record as −1.841. The nucOX in the experiment on nuOXPHOS transcripts (setting [4]) is −1.858. In the experiment with mtOXPHOS transcripts (setting [4]), this compound returned a mitoOX of −1.401. The cyt c in the experiment on cytochrome c (setting [4]) turned out to be 0.683. Further, in the experiment on C2C12 myotubes (setting [4]), the Viability is listed as −0.198. The compound further registered an MTT in experiment [2] (setting [4]) of −2.002.
In the case of `CC(C)NCC(O)c1cc(O)cc(O)c1` (stereo not drawn) [metaproterenol], the ΔΨm in experiment [1] (setting [5]) is −1.005. The same compound returned an ROS with reactive oxygen species (setting [5]) of 2.154. For the same compound, in the experiment on OXPHOS gene expression (setting [5]), the GE-HTS is on record as 0.086. Further, the nucOX with nuOXPHOS transcripts (setting [5]) is 0.138. This compound also registered a mitoOX with mtOXPHOS transcripts (setting [5]) of −0.094. Also, the cyt c came to 0.339 with cytochrome c and 0.212 in the experiment with cytochrome c (setting [5]). In the experiment on C2C12 myotubes (setting [5]), this compound registered a Viability of 0.206. In experiment [2] (setting [5]), this compound had an MTT of −0.832.
Take `CC(C)c1c(O)ccc2c1CCC1C(C)(C(=O)O)CCCC21C` (stereo not drawn) [totarol-19-carboxylic acid]: the ΔΨm in experiment [1] (setting [6]) was −0.008. Besides, in the experiment with reactive oxygen species (setting [6]), the ROS is −0.209. This compound came in with a GE-HTS in the experiment with OXPHOS gene expression (setting [6]) of −0.399. Moreover, the nucOX in the experiment on nuOXPHOS transcripts (setting [6]) was −0.494. Moreover, in the experiment on mtOXPHOS transcripts (setting [6]), the mitoOX is reported as −0.073. Also, the cyt c in the experiment with cytochrome c (setting [6]) is −1.116. Moreover, the Viability in the experiment with C2C12 myotubes (setting [6]) is reported as −0.506. In experiment [2] (setting [6]), this compound had an MTT of −1.701.
`COc1cc2c(cc1OC)C1(O)C(=O)c3ccc(O)c(C(=O)O)c3OC1CO2` (stereo not drawn) had a ΔΨm in experiment [1] (setting [4]) of −0.494. Also, the ROS in the experiment with reactive oxygen species (setting [4]) is −0.738. Moreover, the GE-HTS in the experiment with OXPHOS gene expression (setting [4]) is on record as −0.404. In the experiment with nuOXPHOS transcripts (setting [4]), the nucOX is on record as −0.162. For the same compound, in the experiment with mtOXPHOS transcripts (setting [4]), the mitoOX is −0.773. Besides, the cyt c in the experiment on cytochrome c (setting [4]) is on record as 0.670. This compound showed a Viability in the experiment with C2C12 myotubes (setting [4]) of 0.509. For the same compound, the MTT in experiment [2] (setting [4]) is −0.976.
With `OCC(O)COc1ccc(Cl)cc1` (stereo not drawn) [chlorphensin], in experiment [1] (setting [7]), the ΔΨm is −0.419. In the experiment on reactive oxygen species (setting [7]), this compound came in with an ROS of 0.692. Further, the GE-HTS with OXPHOS gene expression (setting [7]) is listed as −0.696. In the experiment with nuOXPHOS transcripts (setting [7]), this compound registered a nucOX of −0.613. Besides, the mitoOX with mtOXPHOS transcripts (setting [7]) is listed as −0.766. This compound also returned a cyt c with cytochrome c (setting [7]) of −0.522. In the experiment with C2C12 myotubes (setting [7]), this compound gave a Viability of −1.132. In addition, the MTT in experiment [2] (setting [7]) is −0.356.
As to `CC(N/C(=N\C#N)Nc1ccncc1)C(C)(C)C` (stereo not drawn) [pinacidil], the figures for the ΔΨm in experiment [1] and in experiment [1] (setting [3]) were −0.614 and −0.949, respectively. Moreover, the ROS with reactive oxygen species came out at 0.383; in the experiment on reactive oxygen species (setting [3]), 0.655. For the same compound, the GE-HTS in the experiment on OXPHOS gene expression is −0.146; in the experiment on OXPHOS gene expression (setting [3]), −0.515. The values for the nucOX in the experiment on nuOXPHOS transcripts and in the experiment on nuOXPHOS transcripts (setting [3]) were 0.038 and −0.301, respectively. In addition, the mitoOX in the experiment with mtOXPHOS transcripts is listed as −0.498; in the experiment on mtOXPHOS transcripts (setting [3]), −0.814. For the same compound, the cyt c in the experiment on cytochrome c is 0.027; with cytochrome c (setting [3]), 1.030. Besides, the Viability with C2C12 myotubes is reported as −0.477; in the experiment on C2C12 myotubes (setting [3]) it was −0.062. The MTT in experiment [2] is −0.889; in experiment [2] (setting [3]), −0.142.

The values are drawn from US20090143279A1 (priority 2007, published 2009).
